Source: ChEMBL document CHEMBL1146931, “Inhibitors of VEGF receptors-1 and -2 based on the 2-((pyridin-4-yl)ethyl)pyridine template” (Bioorg Med Chem Lett, 2006)

Experiments:
[1] = target: T1, Vascular endothelial growth factor receptor 2 (Homo sapiens, UniProt P35968); experiment: Inhibition of VEGFR2 phosphorylation in HEK293 cells by cell-based ELISA
[2] = target: T1, Vascular endothelial growth factor receptor 2
Description: Inhibition of VEGFR2 phosphorylation in presence of 2 uM ATP by HTRF assay

[3] = target: Vascular endothelial growth factor receptor 1 (Homo sapiens, UniProt P17948)
Chain of Vascular endothelial growth factor receptor 1 (P17948 whole entry): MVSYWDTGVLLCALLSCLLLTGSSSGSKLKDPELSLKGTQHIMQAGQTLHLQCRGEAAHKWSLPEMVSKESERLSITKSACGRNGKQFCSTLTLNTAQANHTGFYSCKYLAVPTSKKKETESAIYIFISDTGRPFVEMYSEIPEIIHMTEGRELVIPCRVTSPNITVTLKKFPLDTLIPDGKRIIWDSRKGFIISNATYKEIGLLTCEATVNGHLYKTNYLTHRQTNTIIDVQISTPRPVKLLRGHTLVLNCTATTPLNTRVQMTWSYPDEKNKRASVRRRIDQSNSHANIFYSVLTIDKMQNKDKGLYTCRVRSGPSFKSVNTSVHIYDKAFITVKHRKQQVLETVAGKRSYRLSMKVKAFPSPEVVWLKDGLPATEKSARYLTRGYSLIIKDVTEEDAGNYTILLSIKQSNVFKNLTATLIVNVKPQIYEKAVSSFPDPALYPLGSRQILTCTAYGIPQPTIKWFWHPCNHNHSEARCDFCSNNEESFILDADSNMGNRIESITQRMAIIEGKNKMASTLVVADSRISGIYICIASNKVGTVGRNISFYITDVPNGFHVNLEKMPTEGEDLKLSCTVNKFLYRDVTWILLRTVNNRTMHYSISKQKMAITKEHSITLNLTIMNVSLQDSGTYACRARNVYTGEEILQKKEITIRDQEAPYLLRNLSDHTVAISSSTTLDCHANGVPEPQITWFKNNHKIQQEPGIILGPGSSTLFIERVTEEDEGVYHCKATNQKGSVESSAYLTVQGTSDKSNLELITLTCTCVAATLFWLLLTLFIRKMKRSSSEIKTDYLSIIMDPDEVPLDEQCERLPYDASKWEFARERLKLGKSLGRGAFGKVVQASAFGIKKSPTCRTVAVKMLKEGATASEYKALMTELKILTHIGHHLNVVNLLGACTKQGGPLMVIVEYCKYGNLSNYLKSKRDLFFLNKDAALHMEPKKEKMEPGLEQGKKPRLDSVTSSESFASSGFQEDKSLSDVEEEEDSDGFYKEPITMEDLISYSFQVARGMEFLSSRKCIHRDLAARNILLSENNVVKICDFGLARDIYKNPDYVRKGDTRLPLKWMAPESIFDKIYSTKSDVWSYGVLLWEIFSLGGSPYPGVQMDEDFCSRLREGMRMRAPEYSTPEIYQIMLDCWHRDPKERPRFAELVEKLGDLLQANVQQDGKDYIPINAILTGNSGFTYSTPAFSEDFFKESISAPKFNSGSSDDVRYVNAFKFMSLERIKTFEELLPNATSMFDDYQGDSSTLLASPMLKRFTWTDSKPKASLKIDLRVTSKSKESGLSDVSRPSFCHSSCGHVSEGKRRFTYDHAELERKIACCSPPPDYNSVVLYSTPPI
Description: Inhibition of VEGFR1 phosphorylation in presence of 2 uM ATP by HTRF assay

[4] = target: T1, Vascular endothelial growth factor receptor 2; experiment: Binding affinity to VEGFR2 at 0.031 uM
[5] = target: T1, Vascular endothelial growth factor receptor 2; experiment: Binding affinity to VEGFR2 at 0.058 uM
Caco-2 = experiment: Intrinsic permeability in Caco-2 cells; conditions: human
[6] = target: T1, Vascular endothelial growth factor receptor 2; experiment: Binding affinity to VEGFR2 at 0.043 uM

T1 sequence (P35968 whole entry): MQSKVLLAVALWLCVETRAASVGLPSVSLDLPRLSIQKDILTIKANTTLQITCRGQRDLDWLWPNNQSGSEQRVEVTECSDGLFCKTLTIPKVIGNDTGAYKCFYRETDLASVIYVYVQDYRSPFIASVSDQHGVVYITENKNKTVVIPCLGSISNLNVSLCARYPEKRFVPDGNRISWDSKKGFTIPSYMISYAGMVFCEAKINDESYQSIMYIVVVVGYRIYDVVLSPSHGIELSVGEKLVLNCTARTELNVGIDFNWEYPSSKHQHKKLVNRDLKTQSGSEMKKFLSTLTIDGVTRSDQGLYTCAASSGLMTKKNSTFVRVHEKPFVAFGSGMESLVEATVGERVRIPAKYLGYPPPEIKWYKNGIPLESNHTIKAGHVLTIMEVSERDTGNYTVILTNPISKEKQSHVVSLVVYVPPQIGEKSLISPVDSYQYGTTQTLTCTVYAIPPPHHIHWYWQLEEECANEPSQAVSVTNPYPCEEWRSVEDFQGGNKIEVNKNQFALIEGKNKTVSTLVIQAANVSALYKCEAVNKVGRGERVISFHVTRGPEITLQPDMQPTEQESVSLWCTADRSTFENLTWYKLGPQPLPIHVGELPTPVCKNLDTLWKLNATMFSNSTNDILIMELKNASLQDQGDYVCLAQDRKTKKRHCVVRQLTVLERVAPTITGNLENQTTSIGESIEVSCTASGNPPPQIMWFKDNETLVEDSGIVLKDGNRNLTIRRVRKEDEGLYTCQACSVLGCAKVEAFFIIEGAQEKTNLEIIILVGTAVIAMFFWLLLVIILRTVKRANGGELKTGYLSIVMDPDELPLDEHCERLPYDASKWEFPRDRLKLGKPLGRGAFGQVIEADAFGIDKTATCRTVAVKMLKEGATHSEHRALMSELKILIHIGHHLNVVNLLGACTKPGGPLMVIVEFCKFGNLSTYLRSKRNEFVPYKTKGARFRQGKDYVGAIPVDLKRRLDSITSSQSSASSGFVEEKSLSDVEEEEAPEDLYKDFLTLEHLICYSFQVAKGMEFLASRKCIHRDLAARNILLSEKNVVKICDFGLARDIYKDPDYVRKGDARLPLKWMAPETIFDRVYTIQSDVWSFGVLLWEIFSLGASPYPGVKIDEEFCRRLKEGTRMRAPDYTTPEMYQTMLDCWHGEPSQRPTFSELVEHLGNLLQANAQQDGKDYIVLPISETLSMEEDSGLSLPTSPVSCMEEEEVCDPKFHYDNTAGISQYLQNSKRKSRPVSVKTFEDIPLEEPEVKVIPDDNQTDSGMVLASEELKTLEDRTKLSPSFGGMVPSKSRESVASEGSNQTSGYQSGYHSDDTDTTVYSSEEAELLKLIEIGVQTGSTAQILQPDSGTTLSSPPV

IC50 ([1]; read-out: IC50) [µM] | IC50 [2] [µM] | IC50 [3] [µM] | Ki [4] [µM] | Ki [5] [µM] | IC50 ([1]; hek293) | Pm (Caco-2) | Ki [6] [µM] | Compound
0.53 | 0.22 | 0.81 |  |  |  |  |  | FC(F)(Cl)Oc1ccc(Nc2nnc(-c3ccncc3CCc3ccncc3)o2)cc1
> 10 | > 10 | > 10 |  |  |  |  |  | FC(F)(F)c1cccc(Nc2nnc(-c3cc4ccccc4nc3CCc3ccncc3)o2)c1
2.54 | 0.72 | 1.22 |  |  |  |  |  | FC(F)(F)c1cccc(Nc2nnc(-c3cnccc3CCc3ccncc3)o2)c1
0.72 | 0.29 | 0.84 |  |  |  |  |  | FC(F)(F)c1ccc(Nc2nnc(-c3ccncc3CCc3ccncc3)o2)cc1
0.051 | 0.044 | 0.56 |  |  |  |  |  | FC(F)(F)Oc1ccc(Nc2nnc(-c3cccnc3CCc3ccncc3)o2)cc1
0.59 | 0.44 | 0.53 |  |  |  |  |  | FC(F)(Cl)Oc1ccc(Nc2nnc(-c3cnccc3CCc3ccncc3)o2)cc1
0.51 | 0.36 | 0.47 |  |  |  |  |  | FC(F)(F)Oc1ccc(Nc2nnc(-c3cnccc3CCc3ccncc3)o2)cc1
0.044 | 0.031 | 0.73 | 0.1 |  |  |  |  | FC(F)(Cl)Oc1ccc(Nc2nnc(-c3cccnc3CCc3ccncc3)o2)cc1
0.66 | 0.35 | 0.93 |  |  |  |  |  | FC(F)(F)Oc1ccc(Nc2nnc(-c3ccncc3CCc3ccncc3)o2)cc1
1.11 | 0.56 | 0.76 |  |  |  |  |  | FC(F)(F)c1cccc(Nc2nnc(-c3ccncc3CCc3ccncc3)o2)c1
0.29 | 0.17 | 0.5 |  |  |  |  |  | COc1cccc(Nc2nnc(-c3cccnc3CCc3ccncc3)o2)c1
 | 2.63 | > 10 |  |  |  |  |  | c1ccc(-c2ccc(Nc3nnc(-c4cccnc4CCc4ccncc4)o3)cc2)cc1
0.094 | 0.079 | 0.27 |  |  |  |  |  | Clc1ccc(Nc2nnc(-c3cccnc3CCc3ccncc3)o2)cc1Cl
0.74 | 0.44 | 0.67 |  |  |  |  |  | FC(F)(F)c1ccc(Nc2nnc(-c3cnccc3CCc3ccncc3)o2)cc1
0.76 | 0.55 | 0.74 |  |  |  |  |  | FC(F)(F)Oc1cccc(Nc2nnc(-c3cnccc3CCc3ccncc3)o2)c1
0.076 | 0.058 | 0.32 |  | 0.12 |  |  |  | FC(F)(F)c1ccc(Nc2nnc(-c3cccnc3CCc3ccncc3)o2)cc1
 | 0.38 | 0.44 |  |  | Not Active |  |  | c1cnc(CCc2ccncc2)c(-c2nnc(Nc3cnc4ccccc4c3)o2)c1
> 10 | > 10 | > 10 |  |  |  |  |  | Fc1ccc(CCc2ncccc2-c2nnc(Nc3cccc(C(F)(F)F)c3)o2)cc1F
0.092 | 0.087 | 0.12 |  |  |  |  |  | Cc1ccc(Nc2nnc(-c3cccnc3CCc3ccncc3)o2)cc1C(F)(F)F
0.32 | 0.19 | 0.22 |  |  |  |  |  | CC(C)(C)c1ccc(Nc2nnc(-c3ccncc3CCc3ccncc3)o2)cc1

IC50 ([1]; read-out: IC50) [µM] | IC50 [2] [µM] | IC50 [3] [µM] | Ki [4] [µM] | Ki [5] [µM] | IC50 ([1]; hek293) | Pm (Caco-2) | Ki [6] [µM] | Compound
2.14 | 0.77 | 1.07 |  |  |  |  |  | Cc1cccc(Nc2nnc(-c3cccnc3CCc3ccncc3)o2)c1
0.075 | 0.051 | 0.62 |  |  |  |  |  | CC(C)c1ccc(Nc2nnc(-c3cccnc3CCc3ccncc3)o2)cc1
> 10 | 3.87 | > 10 |  |  |  |  |  | FC(F)(F)c1cccc(Nc2nnc(-c3cccnc3CCc3ccc4[nH]ncc4c3)o2)c1
> 10 | > 10 | > 10 |  |  |  |  |  | FC(F)(F)c1cccc(Nc2nnc(-c3cccnc3CCc3cccnc3)o2)c1
0.29 | 0.085 | 0.14 |  |  |  | 23.6 10^-5 cm/min |  | c1cnc(CCc2ccncc2)c(-c2nnc(NCc3ccc4c(c3)OCO4)o2)c1
 | > 10 | > 10 |  |  |  |  |  | c1ccc2ncc(Nc3nnc(-c4cc5ccccc5nc4CCc4ccncc4)o3)cc2c1
 | > 10 | > 10 |  |  |  |  |  | CC(C)(C)c1ccc(Nc2nnc(-c3cc4ccccc4nc3CCc3ccncc3)o2)cc1
0.063 | 0.043 | 0.77 |  |  |  |  | 0.13 | CC(C)(C)c1ccc(Nc2nnc(-c3cccnc3CCc3ccncc3)o2)cc1
 | > 10 | > 10 |  |  |  |  |  | Cc1ccccc1Nc1nnc(-c2cccnc2CCc2ccncc2)o1
0.39 | 0.25 | 0.27 |  |  |  |  |  | CC(C)c1ccc(Nc2nnc(-c3ccncc3CCc3ccncc3)o2)cc1
0.11 | 0.069 | 0.26 |  |  |  | 42.6 10^-5 cm/min |  | FC(F)(F)Oc1cccc(Nc2nnc(-c3cccnc3CCc3ccncc3)o2)c1
 |  |  |  |  |  | 17.3 10^-5 cm/min |  | O=C(Nc1cnc2ccccc2c1)c1ccccc1NCc1ccncc1
0.52 | 0.31 | 0.48 |  |  |  |  |  | CC(C)(C)c1ccc(Nc2nnc(-c3cnccc3CCc3ccncc3)o2)cc1
0.11 | 0.067 | 0.18 |  |  |  |  |  | COc1ccc(Nc2nnc(-c3cccnc3CCc3ccncc3)o2)cc1OC
0.86 | 0.47 | 0.71 |  |  |  |  |  | FC(F)(F)Oc1cccc(Nc2nnc(-c3ccncc3CCc3ccncc3)o2)c1
> 10 | > 10 | > 10 |  |  |  |  |  | FC(F)(F)c1cccc(Nc2nnc(-c3cccnc3CCc3ccc4ccccc4n3)o2)c1
0.11 | 0.064 | 0.22 |  |  |  |  |  | FC(F)(F)c1cccc(Nc2nnc(-c3cccnc3CCc3ccncc3)o2)c1
> 10 | 5.64 | > 10 |  |  |  |  |  | FC(F)(F)c1cccc(Nc2nnc(-c3cccnc3CCc3cccc4ncccc34)o2)c1
> 10 | > 10 | > 10 |  |  |  |  |  | FC(F)(F)c1cccc(Nc2nnc(-c3cccnc3CCc3ccccn3)o2)c1
